{
  "source": "patent US20140323307A1",
  "about": "“MANAGEMENT METHOD AND MANAGEMENT SYSTEM FOR BIOMASS AT PLANT HARVEST” (Japan Science and Technology Agency, priority 2011, published 2014)",
  "tested_on": "Arabidopsis thaliana",
  "details": "linolenic acid-deficient, linolenic acid-excess and wild-type strains; 2 mM GSH or 1 mM GSSG aqueous solution, 25 mL per three individuals, once a week for 5 weeks; FIG. 9",
  "procedure": "Each strain of Arabidopsis thaliana tested here was grown in the following manner: seeds of three individuals of each strain of Arabidopsis thaliana were sown in a pot, and grown from when the seeds were sown to when the individuals bore seeds (grown for about 2.5 to 3 months) under the controlled condition where light intensity was approximately 100 μE·m^−2·S^−1, the light and dark cycle was set to 16 hours and 8 hours, and the temperature was 22° C. […] Above-ground parts of the obtained Arabidopsis thaliana were harvested, and dried for five or more days in a dry house having a humidity of 5% and a temperature of 20° C. After they were thoroughly dried, the total biomass of above-ground parts at harvest (dry weight of the entire above-ground parts) and seed yield (dry weight of harvested seeds) for each pot were measured. As for the linolenic acid-deficient strain (triple mutant), only the total biomass of above-ground parts at harvest was measured.",
  "data": [
    {"smiles": "N[C@@H](CCC(=O)N[C@@H](CS)C(=O)NCC(=O)O)C(=O)O", "note": "[glutathione]", "values": [
      {"measurement": "biomass at harvest (total biomass of above-ground parts, dry weight; seed yield) compared to the controls", "result": "significantly increased in biomass"}
    ]}
  ]
}
